From publication PMC9171197, “The Impact of Chromate on Pseudomonas aeruginosa Molybdenum Homeostasis” (Frontiers in Microbiology, 2022)
Where two headings read alike, the source gives them in different places.

Molecular target: T1, P. aeruginosa PAO1 ModA (Pseudomonas aeruginosa, UniProt Q9I2N2)
T1 construct: N-terminal His6 tag (pMCSG7) cleaved by TEV protease; E. coli BL21-Gold (DE3); metal-free
Assay: isothermal titration calorimetry
Format: binding
Description: isothermal titration calorimetry on P. aeruginosa PAO1 ModA

T1 sequence (Q9I2N2 23-251): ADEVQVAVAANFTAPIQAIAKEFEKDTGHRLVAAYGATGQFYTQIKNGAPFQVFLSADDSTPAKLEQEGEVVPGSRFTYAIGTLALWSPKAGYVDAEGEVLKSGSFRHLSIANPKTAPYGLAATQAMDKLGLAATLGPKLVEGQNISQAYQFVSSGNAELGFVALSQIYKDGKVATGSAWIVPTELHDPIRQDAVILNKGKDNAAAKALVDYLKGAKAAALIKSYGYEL

## [O]=[Cr](=[O])([OH])[OH] [CrO, chromate]
read-out: CrO-ModA
  Kd: 927 ± 87.7 nM

## [O]=[Mo](=[O])([OH])[OH] [MoO, molybdate]
read-out: MoO-ModA
  Kd: 1 ± 1.3 nM

## [O]=[W](=[O])([OH])[OH] [WO, tungstate]
read-out: WO-ModA
  Kd: 1.2 ± 2 nM
